Measurements taken from the NIST ThermoML archive (doi:10.1016/j.tca.2014.07.022).

Assay: xn = mol fraction of the nth substance listed
Conditions: 100 kPa, Liquid; for viscosity: Concentric cylinders viscometry; for mass density: Vibrating tube method

CC(=O)CC(C)C [4-methylpentan-2-one] + CCC(C)O
Conditions	mass density, 293.15 K [kg/m3]	mass density, 298.15 K [kg/m3]	mass density, 303.15 K [kg/m3]	viscosity, 293.15 K [mPa·s]	viscosity, 298.15 K [mPa·s]	viscosity, 303.15 K [mPa·s]	viscosity, 308.15 K [mPa·s]
x1 = 0.1002	805.1	800.9	796.4	2.361	2.041	1.762	1.531
x1 = 0.1905	803.8	799.5	795	1.802	1.598	1.403	1.247
x1 = 0.2801	802.8	798.4	793.9	1.468	1.311	1.173	1.055
x1 = 0.4054	801.7	797.2	792.6	1.162	1.053	0.955	0.87
x1 = 0.4891	801.2	796.6	792.1	1.001	0.916	0.84	0.775
x1 = 0.6123	800.7	796	791.5	0.84	0.776	0.716	0.664
x1 = 0.6942	800.5	795.9	791.3	0.771	0.717	0.668	0.623
x1 = 0.779	800.5	795.8	791.2	0.713	0.666	0.621	0.582
x1 = 0.8747	800.5	795.8	791.3	0.646	0.607	0.569	0.536
x1 = 0.9522	800.7	796	791.4	0.614	0.582	0.545	0.513
x1 = 1	800.8	796.1	791.6	0.588	0.554	0.523	0.493
